Experimental data published in patent EP4721767A1 (priority 2023, dated 2024).
Substitutions are numbered along the chain they refer to. Where “and” joins values, the source holds several entries; their conditions need not be identical. Equal entries are not always repeated.

Tests used:
[1] = system: HT29 human colon cancer cells; assay: Cell killing activity of camptothecins (CCK-8); assay type: cell-based; settings: HT29, killing 4 days; for EC50: Homo sapiens, HT-29, 96 h
Protocol: (§1) KB oral epithelial cancer cells (purchased from: ATCC) were cultured in DMEM medium supplemented with 10% FBS; NCI-N87 human gastric cancer cells (purchased from: ATCC) were cultured in RPMI1640 medium supplemented with 10% FBS; HT29 human colon cancer cells (purchased from: ATCC) were cultured in RPMI1640 medium supplemented with 10% FBS; and BxPC-3 human pancreatic adenocarcinoma cells (purchased from: ATCC) were cultured in RPMI1640 medium supplemented with 10% FBS.
(§2) Using corresponding media described above and in cell plates, the density of KB cells was adjusted to 2×10^4/mL; the density of NCI-N87 cells was adjusted to 5×10^4/mL; the density of HT29 cells was adjusted to 5×10^4/mL, and the cells were plated onto 96-well transparent flat bottom plates, at 100 µL/well, and cultured overnight; and the density of BxPC-3 cells was adjusted to 5×10^4/mL.
(§3) Samples to be detected were diluted to 20 µM with corresponding media, then 5-fold gradient dilution was performed, and 9 concentrations were obtained. A well having cells but with no any sample added was set as the well showing maximum cell growth; and a well having no cells was set as the well of medium background. The diluted samples were added into the cell plates, at 100 µL/well, which were then incubated in a CO2 incubator for 96 hours. After the incubation, CCK-8 (purchased from: DOJINDO LABORATORIES) prepared beforehand was added into the plates, at 20 µL/well, and after further 3 hours of incubation in the CO2 incubator, OD values at 450 nm were read on a microplate reader.
(§4) Data obtained was fitted to a four-parameter curve using software Prism7, and equation for calculating maximum killing is: maximum killing (%) = 1 - (OD450 value of the well showing maximum killing - OD450 value of the well of medium background) / (OD450 value of the well showing maximum cell growth - OD450 value of the cell of medium background) × 100%. Table 6. Results of comparative study on the activity of camptothecins

[2] = system: KB oral epithelial cancer cells; assay: Cell killing activity of camptothecins (CCK-8); assay type: cell-based; settings: killing 4 days; for EC50: 96 h
Protocol: as §1, §2, §3, §4

[3] = system: NCI-N87 human gastric cancer cells; assay: cells; assay type: cell-based; settings: NCI-N87, killing 4 days; for EC50: Homo sapiens, NCI-N87, 96 h
[4] = system: BxPC-3 human pancreatic adenocarcinoma cells; assay: cells; assay type: cell-based; settings: BxPC-3, killing 4 days; for EC50: Homo sapiens, BXPC-3, 96 h
[5] = target: T1, Recombinant human B7-H3 extracellular domain protein (UniProtKB-Q5ZPR3, amino acids 1-461, C-His tag) (human) (UniProt Q5ZPR3); assay: BLI (ForteBio Octet QKe), antibody on AHC probes, 60 nM antigen, 1:1 Langmuir fit
T1 sequence (looked up): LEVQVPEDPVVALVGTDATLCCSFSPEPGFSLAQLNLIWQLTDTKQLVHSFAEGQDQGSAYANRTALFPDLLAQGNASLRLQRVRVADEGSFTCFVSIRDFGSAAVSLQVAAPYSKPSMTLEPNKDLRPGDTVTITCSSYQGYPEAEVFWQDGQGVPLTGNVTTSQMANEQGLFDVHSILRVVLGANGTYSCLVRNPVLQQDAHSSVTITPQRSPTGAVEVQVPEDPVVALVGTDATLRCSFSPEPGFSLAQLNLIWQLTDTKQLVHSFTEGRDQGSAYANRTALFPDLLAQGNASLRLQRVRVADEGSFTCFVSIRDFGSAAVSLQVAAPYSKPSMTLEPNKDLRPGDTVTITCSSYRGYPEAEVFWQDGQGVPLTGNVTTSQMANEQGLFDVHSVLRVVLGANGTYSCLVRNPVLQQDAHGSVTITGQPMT

[6] = target: T2, human B7-H3 naturally expressed on the surface of SKOV3 cells (human) (UniProt Q5ZPR3); assay: flow cytometry (MFI) on SKOV3 cells naturally expressing human B7-H3
T2 sequence (looked up): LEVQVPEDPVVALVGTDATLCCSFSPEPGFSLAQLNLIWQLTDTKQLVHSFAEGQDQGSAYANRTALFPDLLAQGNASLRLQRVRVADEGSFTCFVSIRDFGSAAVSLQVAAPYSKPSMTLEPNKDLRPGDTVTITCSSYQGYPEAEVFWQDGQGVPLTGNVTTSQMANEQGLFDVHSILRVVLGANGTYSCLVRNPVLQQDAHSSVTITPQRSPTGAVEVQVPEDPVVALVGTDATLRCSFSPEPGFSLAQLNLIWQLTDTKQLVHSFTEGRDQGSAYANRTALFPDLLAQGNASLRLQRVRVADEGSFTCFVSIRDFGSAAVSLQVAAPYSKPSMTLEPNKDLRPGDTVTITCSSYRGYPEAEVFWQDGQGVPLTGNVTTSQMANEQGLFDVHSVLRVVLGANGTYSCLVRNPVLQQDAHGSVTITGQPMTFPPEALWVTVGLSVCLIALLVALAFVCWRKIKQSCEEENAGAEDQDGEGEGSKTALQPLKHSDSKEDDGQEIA

[7] = target: T3, Recombinant human B7-H3 extracellular domain protein (UniProtKB-Q5ZPR3, amino acids 1-461, C-His tag) (human, UniProt Q5ZPR3 29-461); assay: BLI (ForteBio Octet QKe), antibody on AHC probes, 60 nM antigen, 1:1 Langmuir fit
T3 construct: range 1-461; The printed range 1-461 starts at residue 1 and so covers the signal peptide; also called human B7-H3 ECD-His; recombinant human B7-H3 ECD protein; not shown: C-terminal His tag
T3 sequence (looked up): T1 sequence (looked up)

[8] = target: T4, human B7-H3 naturally expressed on the surface of SKOV3 cells (human, UniProt Q5ZPR3 29-534); assay: flow cytometry (MFI) on SKOV3 cells naturally expressing human B7-H3
T4 construct: whole, on cells; also called surface antigen of SKOV3 cells; B7-H3 on the surface of SKOV3 cells
T4 sequence (looked up): T2 sequence (looked up)

[9] = Phase I, advanced solid tumors, reported 2021; cited from earlier work

CC[C@@]1(O)C(=O)OCc2c1cc1n(c2=O)Cc2c-1nc1ccc(N)c3c1c2C(C)(C)CC3 [Compound 1]
Maximum Killing (%) [1]: 91.9%
EC50 [1]: 43.4 nM
EC50 [2]: 52.3 nM
Maximum Killing (%) [2]: 97.6%
EC50 [3]: 21.9 nM

CC[C@@]1(O)C(=O)OCc2c1cc1n(c2=O)Cc2c-1nc1ccc(N)c3c1c2C1CC1C3 (some centres unmarked) [Compound 7]
EC50 [4]: 11.4 nM
EC50 [3]: 3.31 nM

CC[C@@]1(O)C(=O)OCc2c1cc1n(c2=O)Cc2c-1nc1ccc(N)c3c1c2CCS3 [Compound 12]
EC50 [4]: 2.15 nM
EC50 [3]: 8.43 nM

CC[C@@]1(O)C(=O)OCc2c1cc1n(c2=O)Cc2c-1nc1ccc(N)c3c1c2CC[S@+]3[O-] [Compound 14-P1]
EC50 [3]: 503 nM

CC[C@@]1(O)C(=O)OCc2c1cc1n(c2=O)Cc2c-1nc1ccc(N)c3c1c2CC[S@@+]3[O-] [Compound 14-P2]
EC50 [3]: 2000 nM

CC[C@@]1(O)C(=O)OCc2c1cc1n(c2=O)Cc2c-1nc1ccc(N)c3c1c2CCS3(=O)=O [Compound 15]
EC50 [4]: 79.6 nM
EC50 [3]: 178 nM

CC[C@@]1(O)C(=O)OCc2c1cc1n(c2=O)Cc2c-1nc1cc(F)c(N)c3c1c2CCO3 [Compound 18]
EC50 [4]: 1.45 nM
EC50 [3]: 1.57 nM

CC[C@@]1(O)C(=O)OCc2c1cc1n(c2=O)Cc2c-1nc1cc(F)c(N)c3c1c2C(F)(F)CO3 [Compound 19]
EC50 [4]: 1.4 nM
EC50 [3]: 0.864 nM
Maximum Killing (%) [3]: 93.5%

CC[C@@]1(O)C(=O)OCc2c1cc1n(c2=O)Cc2c-1nc1cc(F)c(N)c3c1c2CCS3 [Compound 26]
EC50 [4]: 1.11 nM
EC50 [3]: 1.02 nM

CC[C@@]1(O)C(=O)OCc2c1cc1n(c2=O)Cc2c-1nc1cc(F)c(N)c3c1c2C(F)(F)CS3 [Compound 27]
EC50 [4]: 1.52 nM
EC50 [3]: 1.75 nM

CC[C@@]1(O)C(=O)OCc2c1cc1n(c2=O)Cc2c-1nc1ccc(N)c3c1c2C(F)(F)CO3 [Compound 31]
EC50 [4]: 4.42 nM
EC50 [3]: 8.59 nM

CC[C@@]1(O)C(=O)OCc2c1cc1n(c2=O)Cc2c-1nc1cc(F)c(C)c3c1c2[C@@H](NC(=O)CO)CC3 [Dxd, reference compound]
EC50 [1]: 133 nM
EC50 [2]: 138 nM
Maximum Killing (%) [4]: 93.1%
EC50 [4]: 33.7 nM
Maximum Killing (%) [3]: 93.3%

CC[C@@]1(O)C(=O)OCc2c1cc1n(c2=O)Cc2c-1nc1ccc(N)c3c1c2CCC3 [MWC-1, reference compound]
Maximum Killing (%) [1]: 89% and 89.9%
EC50 [2]: 15.7 nM
Maximum Killing (%) [2]: 98.6%
Maximum Killing (%) [3]: 93.3%

B1: Control antibody hum30 (antibody, from another filing, V domains shown)
VH: QVQLVQSGAEVKKPGSSVKVSCKASGYTFTNYVMHWVRQAPGQGLEWMGYINPYNDDVKYNEKFKGRVTITADESTSTAYMELSSLRSEDTAVYYCARWGYYGSPLYYFDYWGQGTLVTVSS
VL: EIVLTQSPATLSLSPGERATLSCRASSRLIYMHWYQQKPGQAPRPLIYATSNLASGIPARFSGSGSGTDFTLTISSLEPEDFAVYYCQQWNSNPPTFGQGTKVEIK
Kd [5]: 0.344 nM
koff [5]: 0.000324 s⁻¹
kon [5]: 941000 M⁻¹ s⁻¹
EC50 [6]: 1.22 nM

B2: hz10B4 (antibody, V domains shown)
VH: EVQLVQSGAEVKKPGASVKVSCKASGYTFTEYIMHWVRQAPGQGLEWMGGINPASGGTTYNQKFKGRVTMTRDTSISTAYMELSRLRSEDTAVYYCARKGKDYFDWYFDVWGQGTTVTVSS
VL: DIQLTQSPSSLSASVGDRVTMTCSASSSVSYMHWYQQKPGKAPKLLIYDTSKLASGVPSRFSGSGSGTDFTLTISSLQPEDFATYYCQQWSSNPLTFGGGTKVEIK
notes: Humanized anti-B7-H3 antibody prepared by the method of CN114573695A; also called parent hz10B4; hz10B4-VH×hz10B4-VL
Kd [7]: 0.216 nM
koff [7]: 0.000143 s⁻¹
kon [7]: 665000 M⁻¹ s⁻¹
EC50 [8]: 1.58 nM

B3: hz10B4m1 (antibody, V domains shown)
VH: B2 VH
VL: B2 VL with N93A
notes: LCDR3 variant of hz10B4 (SSN→SSA); also called hz10B4-VH×hz10B4-Lm1-VL
Kd [7]: 0.352 nM
koff [7]: 0.000225 s⁻¹
kon [7]: 639000 M⁻¹ s⁻¹
EC50 [8]: 1.89 nM

B4: hz10B4m4 (antibody, V domains shown)
VH: B2 VH
VL: B2 VL with N93G
notes: LCDR3 variant of hz10B4 (SSN→SSG); also called hz10B4-VH×hz10B4-Lm4-VL
Kd [7]: 0.831 nM
koff [7]: 0.00042 s⁻¹
kon [7]: 505000 M⁻¹ s⁻¹
EC50 [8]: 16.9 nM

B5: hz10B4m3 (antibody, V domains shown)
VH: B2 VH
VL: B2 VL with N93Q
notes: LCDR3 variant of hz10B4 (SSN→SSQ); also called hz10B4-VH×hz10B4-Lm3-VL
Kd [7]: 0.422 nM
koff [7]: 0.000281 s⁻¹
kon [7]: 666000 M⁻¹ s⁻¹
EC50 [8]: 1.59 nM

B6: hz10B4m5 (antibody, V domains shown)
VH: B2 VH
VL: B2 VL with S92G, N93S
notes: LCDR3 variant of hz10B4 (SSN→SGS); also called hz10B4-VH×hz10B4-Lm5-VL
Kd [7]: 0.568 nM
koff [7]: 0.000336 s⁻¹
kon [7]: 592000 M⁻¹ s⁻¹
EC50 [8]: 2.25 nM

B7: hz10B4m2 (antibody, V domains shown)
VH: B2 VH
VL: B2 VL with S92A, N93S
notes: LCDR3 variant of hz10B4 (SSN→SAS); also called hz10B4-VH×hz10B4-Lm2-VL
Kd [7]: 0.381 nM
koff [7]: 0.000287 s⁻¹
kon [7]: 755000 M⁻¹ s⁻¹
EC50 [8]: 1.45 nM

B8: MGC018: MacroGenics ADC: anti-B7-H3 humanized IgG1 monoclonal antibody conjugated to Duocarmycin (DUBA) via a cleavable linker, average DAR 2.7 (conjugate, chains of the INN, looked up)
VH: EVQLVESGGGLVKPGGSLRLSCAASGFTFSSYGMSWVRQAPGKGLEWVATINSGGSNTYYPDSLKGRFTISRDNAKNSLYLQMNSLRAEDTAVYYCARHDGGAMDYWGQGTTVTVSS
VL: DIQMTQSPSSLSASVGDRVTITCRASESIYSYLAWYQQKPGKAPKLLVYNTKTLPEGVPSRFSGSGSGTDFTLTISSLQPEDFATYYCQHHYGTPPWTFGQGTRLEIK
modifications: duocarmycin (DUBA) payload, cleavable linker, DAR 2.7
Grade 3 and higher treatment-related adverse events (TRAEs) [9]: 50%
patients with Grade 3 and higher treatment-related adverse events (TRAEs) [9]: 43 patients
severe TRAE neutropenia [9]: 22.1%
severe TRAE thrombocytopenia [9]: 7%
